target: T1, murine SR-BI (Mus musculus, UniProt Q61009); test: Uptake of DiI from DiI-HDL by ldlA[mSR-BI] cells (high throughput screen and concentration dependence); format: cell-based; conditions: Test 1
T1 construct: expressed in transfected cells; host or cells: ldlA-7 (LDL receptor deficient Chinese hamster ovary cells)
T1 sequence (Q61009 1-509): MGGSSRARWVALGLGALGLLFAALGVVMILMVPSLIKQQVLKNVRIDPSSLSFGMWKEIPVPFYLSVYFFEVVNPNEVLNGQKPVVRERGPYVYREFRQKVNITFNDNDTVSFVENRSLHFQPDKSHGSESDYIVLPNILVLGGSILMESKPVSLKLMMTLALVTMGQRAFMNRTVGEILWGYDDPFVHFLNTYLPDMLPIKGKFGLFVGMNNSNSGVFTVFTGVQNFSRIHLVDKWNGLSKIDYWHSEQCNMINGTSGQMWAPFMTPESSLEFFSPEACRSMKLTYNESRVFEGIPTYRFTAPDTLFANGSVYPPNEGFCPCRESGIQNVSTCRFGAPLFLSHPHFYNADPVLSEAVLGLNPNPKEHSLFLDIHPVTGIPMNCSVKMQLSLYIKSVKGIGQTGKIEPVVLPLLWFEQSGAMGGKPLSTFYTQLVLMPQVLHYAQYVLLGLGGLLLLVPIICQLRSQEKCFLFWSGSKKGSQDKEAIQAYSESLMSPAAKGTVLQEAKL

| Compound | ENDOHDL Test 1 |
| --- | --- |
| O=C(/C=C/c1ccccc1)Nc1cccc(Cl)c1Cl [MIT 9952-263] | 0.66 |
| CC(=O)C1=C(C)NC(=S)NC1c1ccco1 (stereo not shown) [MIT 9952-264] | 0.45 |
| Cc1ccc2[nH]c3c(c2c1)CCCC3NCC12CC3CC(CC(C3)C1)C2 (stereo not shown) [MIT 9952-265] | 0.26 |
| CCN1/C(=C/c2sc3ccccc3[n+]2CC)Sc2ccccc21.Cc1ccc(S(=O)(=O)[O-])cc1 [MIT 9952-267] | 0.57 |
| O=C(Nc1ccc(Cl)c(Cl)c1)c1ccccc1Br [MIT 9952-268] | 0.59 |
| COc1ccccc1NC(=O)c1ccc(OC)c(OC)c1 [MIT 9952-269] | 0.74 |
| Cc1cccc(/C=N/Nc2nc(C)nc(C)n2)c1 [MIT 9952-270] | 0.66 |
| C/C(CS(=O)(=O)c1ccccc1)=N/NC(N)=S [MIT 9952-271] | 0.59 |
| COc1ccc(N/N=C2\C(=O)ON=C2c2ccc(OC)cc2)cc1 [MIT 9952-272] | 0.61 |
| CC(=O)OCc1c(C)cc(C)c(/C=N/Nc2ccc([N+](=O)[O-])cc2)c1C [MIT 9952-273] | 0.51 |
| CC(C)c1ccc(NC(=O)/C=C/c2cccc([N+](=O)[O-])c2)cc1 [MIT 9952-274] | 0.65 |
| Cc1cc(C)c(NC(=O)C2CCCN2N)c(C)c1 (stereo not shown) [MIT 9952-276] | 0.73 |
| COc1ccc(C(=O)Nc2ccc(C(C)C)cc2)cc1OC [MIT 9952-277] | 0.66 |
| CCOC1=C(C(C)=O)NC(c2ccc(OC)cc2)C(=S)N1 (stereo not shown) [MIT 9952-278] | 0.71 |

same assay, conditions: Test 1; DiI uptake from DiI-HDL, compounds at nominal 10 micromolar, ldlA[mSR-BI] cells

| Compound | ENDOHDL Test 1 |
| --- | --- |
| Cc1cccc(C(=O)Nc2cccc(Cl)c2)c1 [MIT 9952-279] | 0.64 |
| O=C(Nc1ccc2c(c1)OCO2)c1ccc2ccccc2c1 [MIT 9952-280] | 0.75 |
| O=C(N/N=C/c1cc2c(cc1Br)OCO2)c1cccc(Cl)c1 [MIT 9952-281] | 0.59 |
| O=[N+]([O-])c1cccc(-c2ccc(C(=S)N3CCCCC3)o2)c1 [MIT 9952-282] | 0.49 |
| Cc1cc(C)c(CO)c(C)c1/C=N/Nc1ccc([N+](=O)[O-])cc1 [MIT 9952-283] | 0.53 |
| O=C(Nc1ccc(-c2nc3ccccc3s2)cc1)c1ccc(Cl)cc1Cl [MIT 9952-284] | 0.65 |
| COc1cccc(C(=O)N/N=C/c2ccc(Cl)cc2Cl)c1 [MIT 9952-285] | 0.57 |
| O=[N+]([O-])c1ccc(-c2sc(/N=C/c3c(O)ccc4ccccc34)nc2-c2ccc(Cl)cc2)cc1 [MIT 9952-286] | 0.62 |
| Cc1cc(C)c(/C=N/N=C/c2c(C)cc(C)cc2C)c(C)c1 [MIT 9952-287] | 1.18 |
| CC(C)=C/C(=N\Nc1ccc([N+](=O)[O-])cc1[N+](=O)[O-])C1CC=CCC1 (stereo not shown) [MIT 9952-288] | 0.59 |
| COc1cccc(C(=O)Nc2nc3ccc(Cl)cc3s2)c1 [MIT 9952-289] | 0.6 |
| O=C(/C=C/c1cccc([N+](=O)[O-])c1)Nc1cccc(C(F)(F)F)c1 [MIT 9952-290] | 0.52 |

same assay, conditions: Test 2

| Compound | ENDOHDL Test 2 |
| --- | --- |
| O=C(/C=C/c1ccccc1)Nc1cccc(Cl)c1Cl [MIT 9952-263] | 0.65 |
| CC(=O)C1=C(C)NC(=S)NC1c1ccco1 (stereo not shown) [MIT 9952-264] | 0.56 |
| Cc1ccc2[nH]c3c(c2c1)CCCC3NCC12CC3CC(CC(C3)C1)C2 (stereo not shown) [MIT 9952-265] | 0.89 |
| CCN1/C(=C/c2sc3ccccc3[n+]2CC)Sc2ccccc21.Cc1ccc(S(=O)(=O)[O-])cc1 [MIT 9952-267] | 1.11 |
| O=C(Nc1ccc(Cl)c(Cl)c1)c1ccccc1Br [MIT 9952-268] | 0.65 |
| COc1ccccc1NC(=O)c1ccc(OC)c(OC)c1 [MIT 9952-269] | 0.66 |
| Cc1cccc(/C=N/Nc2nc(C)nc(C)n2)c1 [MIT 9952-270] | 0.66 |
| C/C(CS(=O)(=O)c1ccccc1)=N/NC(N)=S [MIT 9952-271] | 0.54 |
| COc1ccc(N/N=C2\C(=O)ON=C2c2ccc(OC)cc2)cc1 [MIT 9952-272] | 0.51 |
| CC(=O)OCc1c(C)cc(C)c(/C=N/Nc2ccc([N+](=O)[O-])cc2)c1C [MIT 9952-273] | 0.48 |
| CC(C)c1ccc(NC(=O)/C=C/c2cccc([N+](=O)[O-])c2)cc1 [MIT 9952-274] | 0.6 |
| Cc1cc(C)c(NC(=O)C2CCCN2N)c(C)c1 (stereo not shown) [MIT 9952-276] | 0.68 |
| COc1ccc(C(=O)Nc2ccc(C(C)C)cc2)cc1OC [MIT 9952-277] | 0.65 |
| CCOC1=C(C(C)=O)NC(c2ccc(OC)cc2)C(=S)N1 (stereo not shown) [MIT 9952-278] | 0.67 |

same assay, conditions: Test 2; DiI uptake from DiI-HDL, compounds at nominal 10 micromolar, ldlA[mSR-BI] cells

| Compound | ENDOHDL Test 2 |
| --- | --- |
| Cc1cccc(C(=O)Nc2cccc(Cl)c2)c1 [MIT 9952-279] | 0.63 |
| O=C(Nc1ccc2c(c1)OCO2)c1ccc2ccccc2c1 [MIT 9952-280] | 0.67 |
| O=C(N/N=C/c1cc2c(cc1Br)OCO2)c1cccc(Cl)c1 [MIT 9952-281] | 0.34 |
| O=[N+]([O-])c1cccc(-c2ccc(C(=S)N3CCCCC3)o2)c1 [MIT 9952-282] | 0.5 |
| Cc1cc(C)c(CO)c(C)c1/C=N/Nc1ccc([N+](=O)[O-])cc1 [MIT 9952-283] | 0.48 |
| O=C(Nc1ccc(-c2nc3ccccc3s2)cc1)c1ccc(Cl)cc1Cl [MIT 9952-284] | 0.54 |
| COc1cccc(C(=O)N/N=C/c2ccc(Cl)cc2Cl)c1 [MIT 9952-285] | 0.53 |
| O=[N+]([O-])c1ccc(-c2sc(/N=C/c3c(O)ccc4ccccc34)nc2-c2ccc(Cl)cc2)cc1 [MIT 9952-286] | 0.64 |
| Cc1cc(C)c(/C=N/N=C/c2c(C)cc(C)cc2C)c(C)c1 [MIT 9952-287] | 1.32 |
| CC(C)=C/C(=N\Nc1ccc([N+](=O)[O-])cc1[N+](=O)[O-])C1CC=CCC1 (stereo not shown) [MIT 9952-288] | 0.52 |
| COc1cccc(C(=O)Nc2nc3ccc(Cl)cc3s2)c1 [MIT 9952-289] | 0.64 |
| O=C(/C=C/c1cccc([N+](=O)[O-])c1)Nc1cccc(C(F)(F)F)c1 [MIT 9952-290] | 0.56 |

From patent US20040171073A1, “Compounds for modulation of cholesterol transport” (Massachusetts Institute of Technology, priority 2002, published 2004)
